Toxic doses and inconclusive results are not listed.
Test system: P388 leukemia ip, CD2F1 mice, survival T/C
Assay: NCI In Vivo Anticancer Drug Screen. Data for tumor model P388 Leukemia (intraperitoneal) in CD2F1 (CDF1) mice
Conditions: endpoint: median survival time, higher = longer survival
Outline: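 Mice carrying the transplanted tumor received test compound or vehicle. Survival was recorded in each group, and the value is the treated-group measurement divided by that of the vehicle-treated control group.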

[1] = dose: 60.0 mg/kg/injection, schedule: Q01DX005 (ip), vehicle: saline
[2] = dose: 120.0 mg/kg/injection, schedule: Q01DX005 (ip), vehicle: saline
[3] = dose: 240.0 mg/kg/injection, schedule: Q01DX005 (ip), vehicle: saline
[4] = dose: 50.0 mg/kg/injection, schedule: Q01DX005 (ip), vehicle: Klucel (hydroxypropylcellulose) (HPC)
[5] = dose: 100.0 mg/kg/injection, schedule: Q01DX005 (ip), vehicle: Klucel (hydroxypropylcellulose) (HPC)
[6] = dose: 200.0 mg/kg/injection, schedule: Q01DX005 (ip), vehicle: Klucel (hydroxypropylcellulose) (HPC)
[7] = dose: 100.0 mg/kg/injection, schedule: Q01DX001 (ip), vehicle: Klucel (hydroxypropylcellulose) (HPC)
[8] = dose: 200.0 mg/kg/injection, schedule: Q01DX001 (ip), vehicle: Klucel (hydroxypropylcellulose) (HPC)
[9] = dose: 50.0 mg/kg/injection, schedule: Q01DX005 (ip), vehicle: saline with Tween-80
[10] = dose: 100.0 mg/kg/injection, schedule: Q01DX005 (ip), vehicle: saline with Tween-80
[11] = dose: 200.0 mg/kg/injection, schedule: Q01DX005 (ip), vehicle: saline with Tween-80
[12] = dose: 25.0 mg/kg/injection, schedule: Q01DX005 (ip), vehicle: saline with Tween-80

SMILES: O=C1NC2(CCCCC2)C(=O)N1CCCCN(CCCl)CCCl
- T/C (dose: 1.5 mg/kg/injection, schedule: Q01DX005 (ip), vehicle: saline): 122 % of control
- T/C (dose: 6.0 mg/kg/injection, schedule: Q01DX005 (ip), vehicle: saline): 119 % of control
- T/C (dose: 24.0 mg/kg/injection, schedule: Q01DX005 (ip), vehicle: saline): 165 % of control
- T/C (dose: 50.0 mg/kg/injection, schedule: Q01DX005 (ip), vehicle: saline): 160 % of control
- T/C (dose: 100.0 mg/kg/injection, schedule: Q01DX005 (ip), vehicle: saline): 187 % of control

SMILES: CN1CCc2[nH]nc(-c3n[nH]c4c3CN(C)CC4)c2C1
- T/C [1]: 100 % of control
- T/C [2]: 86 % of control
- T/C [3]: 93 % of control

SMILES: Cc1ccc(S(=O)(=O)C(=S)SCc2ccccc2)cc1
- T/C [4]: 106 % of control
- T/C [5]: 105 % of control
- T/C [6]: 96 % of control

SMILES: CC1CN2CC(C)O[Si](CC[Si](C)(C)C)(O1)OC(C)C2 (stereo unspecified)
- T/C [4]: 104 % of control
- T/C [5]: 90 % of control

SMILES: CCN(CC)CCOc1ccc(C2N3Cc4ccccc4CN2c2ccccc23)cc1
- T/C [7]: 99 % of control
- T/C [8]: 108 % of control
- T/C (dose: 400.0 mg/kg/injection, schedule: Q01DX001 (ip), vehicle: Klucel (hydroxypropylcellulose) (HPC)): 99 % of control

SMILES: [B-]([C+]1CCCCC1)N1C=CC=CC1
- T/C [4]: 100 % of control
- T/C [5]: 98 % of control
- T/C [6]: 97 % of control

SMILES: O=c1c(=O)c2cc(O)ccc12
- T/C [9]: 109 % of control
- T/C [10]: 105 % of control
- T/C [11]: 100 % of control

SMILES: O=C(c1ccc(O)cc1)c1ccc(O)cc1O
- T/C (dose: 66.0 mg/kg/injection, schedule: Q01DX001 (ip), vehicle: saline): 100 % of control
- T/C (dose: 150.0 mg/kg/injection, schedule: Q01DX001 (ip), vehicle: saline): 88 % of control
- T/C (dose: 200.0 mg/kg/injection, schedule: Q01DX001 (ip), vehicle: saline): 100 % of control
- T/C (dose: 400.0 mg/kg/injection, schedule: Q01DX001 (ip), vehicle: saline): 100 % of control

SMILES: O=C1CCC(Cc2ccccc2Br)C(=O)N1 (stereo unspecified)
- T/C (dose: 60.0 mg/kg/injection, schedule: Q01DX005 (ip), vehicle: saline with Tween-80): 99 % of control
- T/C (dose: 120.0 mg/kg/injection, schedule: Q01DX005 (ip), vehicle: saline with Tween-80): 107 % of control
- T/C (dose: 240.0 mg/kg/injection, schedule: Q01DX005 (ip), vehicle: saline with Tween-80): 102 % of control

SMILES: C/C(=N\NC(=S)Nc1ccc(S(N)(=O)=O)cc1)c1ccccn1
- T/C (dose: 12.5 mg/kg/injection, schedule: Q01DX005 (ip), vehicle: saline with Tween-80): 94 % of control
- T/C [12]: 108 % of control
- T/C [9]: 119 % of control
- T/C [10]: 96 % of control

SMILES: O=C1CCC(=O)N1CN1CCCCC1
- T/C [1]: 93 % of control
- T/C [2]: 113 % of control
- T/C [3]: 118 % of control

SMILES: O=CC1N=C1c1ccccc1 (stereo unspecified)
- T/C [7]: 88 % of control
- T/C [8]: 90 % of control

SMILES: CC(=O)Nc1ccc(/C=C\c2ccnc3ccccc23)cc1
- T/C (dose: 25.0 mg/kg/injection, schedule: Q04DX002 (ip), vehicle: saline with Tween-80): 109 % of control

SMILES: CCSC/C(=N\Nc1ccc([N+](=O)[O-])cc1[N+](=O)[O-])c1ccccc1
- T/C (dose: 100.0 mg/kg/injection, schedule: Q04DX003 (ip), vehicle: saline with Tween-80): 100 % of control
- T/C (dose: 200.0 mg/kg/injection, schedule: Q04DX003 (ip), vehicle: saline with Tween-80): 95 % of control
- T/C (dose: 400.0 mg/kg/injection, schedule: Q04DX003 (ip), vehicle: saline with Tween-80): 90 % of control

SMILES: Clc1nc2cc3c(cc2n2cccc12)oc1ccccc13
- T/C [12]: 108 % of control
- T/C [9]: 110 % of control
- T/C [10]: 110 % of control
- T/C [11]: 110 % of control

From PubChem BioAssay AID330 (DTP/NCI, 2004)
